According to patent publication US20080299602A1, “Methods of Employing Vascular Leakage to Diagnose a Capillary Leak Disorder” (priority 2007, published 2008):

Tested on: omental vessels of the rat
Assay: Vascular leakage after intravenous bolus of marinobufagenin (FIG. 1), fluorescein-tagged albumin videomicroscopy
Type: in vivo
Conditions: bolus of 200 nM marinobufagenin injected intravenously, time increments vs control (Con)
Method: FIG. 1 illustrates increasing vascular leakage at time increments from 5 seconds to 50 seconds with Con being the control group.
A bolus of 200 nM marinobufagenin was injected intravenously.
In the experimental procedure, single venules were visualized by way of a videomicroscopic technique, which permits viewing blood flow directly. The rats were injected with albumin that had been tagged with fluorescein dye. The distribution of the albumin in the omental vessels of the rat was then observed with a computer being employed to repeatedly measure the dye in the blood vessel and in the interstitium next to the blood vessel, as well as a remote site, which would serve as the control.

In the case of `C[C@]12CC[C@H](O)C[C@@]1(O)CC[C@@H]1[C@@H]2CC[C@]2(C)[C@@H](c3ccc(=O)oc3)C[C@H]3O[C@]132` [marinobufagenin], the “vascular leakage (dye monitored within the extravascular space)” value was “progressive, large leakage”.
